Experiments:
[1] = molecular target: T1, WRN [UniPro: Q14191 (WRN_HUMAN), N500-C946] (Homo sapiens (Human), UniProt Q14191); experiment: WRN ATPase assay (ADP-Glo); type: biochemical; conditions: WRN enzymatic activity assay
[2] = molecular target: T1, WRN [UniPro: Q14191 (WRN_HUMAN), N500-C946]; experiment: WRN unwinding assay (FORKF DNA, fluorescence); type: biochemical; conditions: Table 14

T1 sequence (Q14191 500-946): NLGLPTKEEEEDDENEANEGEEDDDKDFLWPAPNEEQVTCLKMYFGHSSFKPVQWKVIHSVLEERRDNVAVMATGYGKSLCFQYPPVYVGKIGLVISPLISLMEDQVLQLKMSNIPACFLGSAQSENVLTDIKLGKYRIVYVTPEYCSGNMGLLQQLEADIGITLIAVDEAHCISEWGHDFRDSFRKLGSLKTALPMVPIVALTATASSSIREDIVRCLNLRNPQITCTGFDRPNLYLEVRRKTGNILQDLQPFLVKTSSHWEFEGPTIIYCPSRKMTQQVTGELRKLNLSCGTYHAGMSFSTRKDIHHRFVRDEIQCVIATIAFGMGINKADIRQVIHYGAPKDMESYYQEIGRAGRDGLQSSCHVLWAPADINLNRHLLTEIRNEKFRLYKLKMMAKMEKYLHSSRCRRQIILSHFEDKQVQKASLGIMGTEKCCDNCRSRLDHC

Which IC50 [1] does the source give for `CCc1c(N2CCN(C(=O)CNC(=O)c3ccon3)CC2)c(=O)n2nc(C3=CCOCC3)nc2n1CC(=O)Nc1ccc(C(F)(F)F)cc1Cl` [Example 371, N-(2-(4-(4-(2-((2-Chloro-4-(trifluoromethyl)phenyl)amino)-2-oxoethyl)-2-(3,6-dihydro-2H-pyran-4-yl)-5-ethyl-7-oxo-4,7-dihydro-[1,2,4]triazolo[1,5-a]pyrimidin-6-yl)piperazin-1-yl)-2-oxoethyl) isoxazole-3-carboxamide] here?
The IC50 was < 100 nM.

What about the IC50 [2] of the same compound?
Its IC50 is < 100 nM.

What does the source list for `CCc1c(N2CCN(C(=O)CNC(=O)c3ccccc3F)CC2)c(=O)n2nc(C3=CCOCC3)nc2n1CC(=O)Nc1ccc(C(F)(F)F)cc1` [Example 148, N-(2-(4-(2-(3,6-Dihydro-2H-pyran-4-yl)-5-ethyl-7-oxo-4-(2-oxo-2-((4-(trifluoromethyl)phenyl)amino)ethyl)-4,7-dihydro-[1,2,4]triazolo[1,5-a]pyrimidin-6-yl)piperazin-1-yl)-2-oxoethyl)-2-fluorobenzamide]?
IC50 [1]: < 100 nM; IC50 [2]: < 100 nM

What does the source list for `CCc1c(N2CCN(C(=O)Nc3[nH]cnc3C(F)(F)F)CC2)c(=O)n2nc(C3=CCOCC3)nc2n1CC(=O)Nc1ccc(C(F)(F)F)cc1Cl` [Example 30, 4-(4-(2-((2-Chloro-4-(trifluoromethyl)phenyl)amino)-2-oxoethyl)-2-(3,6-dihydro-2H-pyran-4-yl)-5-ethyl-7-oxo-4,7-dihydro-[1,2,4]triazolo[1,5-a]pyrimidin-6-yl)-N-(4-(trifluoromethyl)-1H-imidazol-5-yl)piperazine-1-carboxamide]?
IC50 [1]: 100 to 1000 nM; IC50 [2]: < 100 nM

Which IC50 [1] does the source give for `CCc1c(N2CCN(C(=O)CNC(=O)c3cc(C#N)ccc3F)CC2)c(=O)n2nc(C3=CCOCC3)nc2n1CC(=O)Nc1ccc(C(F)(F)F)cc1Cl` [Example 382, N-(2-(4-(4-(2-((2-Chloro-4-(trifluoromethyl)phenyl)amino)-2-oxoethyl)-2-(3,6-dihydro-2H-pyran-4-yl)-5-ethyl-7-oxo-4,7-dihydro-[1,2,4]triazolo[1,5-a]pyrimidin-6-yl)piperazin-1-yl)-2-oxoethyl)-5-cyano-2-fluorobenzamide] here?
Its IC50 is < 100 nM.

What about the IC50 [2] of the same compound?
The IC50 was < 100 nM.

With `CCc1c(N2CCN(C(=O)CNC(=O)Cc3ccccc3F)CC2)c(=O)n2nc(C3=CCOCC3)nc2n1CC(=O)Nc1ccc(C(F)(F)F)cc1Cl` [Example 274, N-(2-Chloro-4-(trifluoromethyl)phenyl)-2-(2-(3,6-dihydro-2H-pyran-4-yl)-5-ethyl-6-(4-((2-(2-fluorophenyl)acetyl)glycyl)piperazin-1-yl)-7-oxo-[1,2,4]triazolo[1,5-a]pyrimidin-4(7H)-yl)acetamide] as the compound, how does the IC50 [1] read?
The IC50 was < 100 nM.

And the IC50 [2]?
The IC50 was < 100 nM.

Which IC50 [1] does the source give for `CCOc1nc2n(CC(=O)Nc3ccc(C(F)(F)F)cc3Cl)c(CC)c(N3CCN(C(=O)CNC(=O)c4ccccc4F)CC3)c(=O)n2n1` [Example 239, N-(2-(4-(4-(2-((2-Chloro-4-(trifluoromethyl)phenyl)amino)-2-oxoethyl)-2-ethoxy-5-ethyl-7-oxo-4,7-dihydro-[1,2,4]triazolo[1,5-a]pyrimidin-6-yl)piperazin-1-yl)-2-oxoethyl)-2-fluorobenzamide] here?
Its IC50 is 100 to 1000 nM.

What about the IC50 [2] of the same compound?
The IC50 was 100 to 1000 nM.

How did the IC50 [1] turn out when `CCc1c(N2CCN(C(=O)CNC(=O)c3ccccn3)CC2)c(=O)n2nc(C3=CCOCC3)nc2n1CC(=O)Nc1ccc(C(F)(F)F)cc1Cl` [Example 95, N-(2-(4-(4-(2-((2-Chloro-4-(trifluoromethyl)phenyl)amino)-2-oxoethyl)-2-(3,6-dihydro-2H-pyran-4-yl)-5-ethyl-7-oxo-4,7-dihydro-[1,2,4]triazolo[1,5-a]pyrimidin-6-yl)piperazin-1-yl)-2-oxoethyl)picolinamide] was run?
The IC50 was < 100 nM.

And the IC50 [2]?
The IC50 was < 100 nM.

How did the IC50 [1] turn out when `CCc1c(N2CCN(C(=O)c3cn(C)[nH]c3=O)CC2)c(=O)n2nc(C3=CCOCC3)nc2n1CC(=O)Nc1ccc(C(F)(F)F)cc1Cl` [Example 64, N-(2-Chloro-4-(trifluoromethyl)phenyl)-2-(2-(3,6-dihydro-2H-pyran-4-yl)-5-ethyl-6-(4-(1-methyl-3-oxo-2,3-dihydro-1H-pyrazole-4-carbonyl)piperazin-1-yl)-7-oxo-[1,2,4]triazolo[1,5-a]pyrimidin-4(7H)-yl)acetamide] was run?
The IC50 was 100 to 1000 nM.

And the IC50 [2]?
Its IC50 is < 100 nM.

`CCc1c(N2CCN(C(=O)CNC(=O)N(C)Cc3ccccc3)CC2)c(=O)n2nc(C3=CCOCC3)nc2n1CC(=O)Nc1ccc(C(F)(F)F)cc1Cl` [Example 189, 2-(6-(4-((Benzyl(methyl)carbamoyl)glycyl)piperazin-1-yl)-2-(3,6-dihydro-2H-pyran-4-yl)-5-ethyl-7-oxo-[1,2,4]triazolo[1,5-a]pyrimidin-4(7H)-yl)-N-(2-chloro-4-(trifluoromethyl)phenyl)acetamide] was tested. Which IC50 [1] did it give?
The IC50 was < 100 nM.

And the IC50 [2]?
The IC50 was < 100 nM.

`CCc1c(N2CCN(C(=O)CNC(=O)c3ccc(C(F)(F)F)cc3)CC2)c(=O)n2nc(C3=CCOCC3)nc2n1CC(=O)Nc1ccc(C(F)(F)F)cc1Cl` [Example 176, N-(2-(4-(4-(2-((2-Chloro-4-(trifluoromethyl)phenyl)amino)-2-oxoethyl)-2-(3,6-dihydro-2H-pyran-4-yl)-5-ethyl-7-oxo-4,7-dihydro-[1,2,4]triazolo[1,5-a]Pyrimidin-6-yl)piperazin-1-yl)-2-oxoethyl)-4-(trifluoromethyl)benzamide] was tested. Which IC50 [1] did it give?
Its IC50 is 100 to 1000 nM.

What about the IC50 [2] of the same compound?
Its IC50 is 100 to 1000 nM.

`CCc1c(N2CCN(C(=O)c3ccn4nccc4c3O)CC2)c(=O)n2nc(C3=CCOCC3)nc2n1CC(=O)Nc1ccc(C(F)(F)F)cc1Cl` [Example 200, N-(2-Chloro-4-(trifluoromethyl)phenyl)-2-(2-(3,6-dihydro-2H-pyran-4-yl)-5-ethyl-6-(4-(4-hydroxypyrazolo[1,5-a]pyridine-5-carbonyl)piperazin-1-yl)-7-oxo-[1,2,4]triazolo[1,5-a]pyrimidin-4(7H)-yl)acetamide] was tested. Which IC50 [1] did it give?
Its IC50 is < 100 nM.

And the IC50 [2]?
The IC50 was < 100 nM.

Which IC50 [1] does the source give for `CCc1c(N2CCN(C(=O)c3cc4cnccc4[nH]3)CC2)c(=O)n2nc(C3=CCOCC3)nc2n1CC(=O)Nc1ccc(C(F)(F)F)cc1Cl` [Example 313, 2-(6-(4-(1H-Pyrrolo[3,2-c]pyridine-2-carbonyl)piperazin-1-yl)-2-(3,6-dihydro-2H-pyran-4-yl)-5-ethyl-7-oxo-[1,2,4]triazolo[1,5-a]pyrimidin-4(7H)-yl)-N-(2-chloro-4-(trifluoromethyl)phenyl)acetamide] here?
The IC50 was 100 to 1000 nM.

What about the IC50 [2] of the same compound?
The IC50 was 100 to 1000 nM.

Which results are given for `CCc1c(N2CCN(C(=O)c3nccn(C)c3=O)CC2)c(=O)n2nc(C3=CCOCC3)nc2n1CC(=O)Nc1ccc(C(F)(F)F)cc1Cl` [Example 54, N-(2-Chloro-4-(trifluoromethyl)phenyl)-2-(2-(3,6-dihydro-2H-pyran-4-yl)-5-ethyl-6-(4-(4-methyl-3-oxo-3,4-dihydropyrazine-2-carbonyl)piperazin-1-yl)-7-oxo-[1,2,4]triazolo[1,5-a]pyrimidin-4(7H)-yl)acetamide]?
IC50 [1]: 100 to 1000 nM; IC50 [2]: 100 to 1000 nM

With `CCc1c(N2CCN(C(=O)CNC(=O)c3nc(NC)ccc3F)CC2)c(=O)n2nc(C3=CCOCC3)nc2n1CC(=O)Nc1ccc(C(F)(F)F)cc1Cl` [Example 361, N-(2-(4-(4-(2-((2-Chloro-4-(trifluoromethyl)phenyl)amino)-2-oxoethyl)-2-(3,6-dihydro-2H-pyran-4-yl)-5-ethyl-7-oxo-4,7-dihydro-[1,2,4]triazolo[1,5-a]pyrimidin-6-yl)piperazin-1-yl)-2-oxoethyl)-3-fluoro-6-(methylamino) picolinamide] as the compound, how does the IC50 [1] read?
The IC50 was < 100 nM.

What about the IC50 [2] of the same compound?
The IC50 was < 100 nM.

Reference: patent publication US20260015358A1, “BICYCLIC DERIVATIVES, COMPOSITIONS AND USES THEREOF” (Danatlas Pharmaceuticals Co., Ltd., priority 2023, published 2026)
